Measurements from paper PMC6100512, “In-Vitro Activity of Silybin and Related Flavonolignans against Leishmania infantum and L. donovani” (Molecules : A Journal of Synthetic Chemistry and Natural …, 2018).

What was measured:
[1] = system: Li UCM9 promastigotes; assay: Multiplication of Li promastigotes in vitro (CellTiter-Glo, 24 h); format: cell-based, Leishmania infantum; conditions: for inhibition of growth at 120 µM: compared to untreated cultures, mean ± SD, read-out: Reduction (%) of multiplication, L infantum promastigotes
Description: (§1) Growth was estimated by the addition of CellTiter-Glo® (Promega, Madison, WI, USA) (1:1) in 96-well microtiter white plates (Costar, Corning). After 10 min incubation (light protected, room temperature), luminescence was determined with FLUOstar Omega (BMG Labtech) reader. Sensitivity of Ld was similarly performed with promastigotes exposed to 120 μM. Control cultures (medium, untreated promastigotes, promastigotes treated with 0.2 μM AmB) were included. Experiment was carried out in triplicate and results expressed as % of inhibition of untreated control. Approximate IC50 values of the flavonolignans showing the highest inhibitory activity against Li mid-log-phase promastigotes were determined using dose-response curves. […] The compound with the highest activity, DhiS-A, was assayed against Ld promastigotes using the latter dilution series and the same culture conditions as above. For comparative purposes, mid-log promastigotes of Li and Ld were exposed to established anti-Leishmania agents: AmB (0.0078 μ[…] and 1.0 μM); […]

[2] = system: Ld promastigotes; assay: Multiplication of Ld promastigotes in vitro (CellTiter-Glo, 24 h); format: cell-based, L. donovani; conditions: Leishmania donovani, 120 µM, compared to untreated cultures, mean ± SD, read-out: Reduction (%) of multiplication, L. donovani promastigotes
Description: as §1

[3] = system: Li promastigotes; assay: Drug combination with DhiS-A, Chou-Talalay method (CalcuSyn); format: cell-based, Leishmania infantum; conditions: for CI value of combination Dn + DhiS-A: constant ratio Dn:DhiS-A (AmB 0.01:15; Sb^III 1:1; PMM 5:1); for Dose Required of Dn in combination with DhiS-A: computer-simulated; for DRI of Dn in combination with DhiS-A: fold dose reduction vs single agent; for Type of interaction with DhiS-A: Li promastigotes, fixed ratios AmB 0.01:15, Sb^III 1:1, PMM 5:1 (Dn:DhiS-A)
Description: Fixed-combination ratios of drugs were based on the IC50 values determined for the individual molecules. Mid-log-phase promastigotes of Li were exposed for 24 h at constant ratios of 0.01:15 (AmB:DhiS-A), 1:1 (Sb^III:DhiS-A) and 5:1 (PMM:DhiS-A). Dose–response curves of the combinations were analyzed with the Chou–Talalay method, based on the theorem of combination index (CI)-isobologram and CalcuSyn software. This method allows the evaluation of the type of interaction between two molecules according to mass action law. Results can be used to determine quantitatively the synergy (CI < 1), additive effect (CI = 1) or antagonism (CI > 1) of combinations. Moreover, the program allows the calculation of the drug reduction index (DRI): dose reduction in drug combinations to reach a given inhibition compared to the activity of the individual drugs.

Question: Which results are given for `COc1cc([C@H]2Oc3ccc([C@H]4Oc5cc(O)cc(O)c5C(=O)[C@@H]4O)cc3O[C@@H]2CO)ccc1O` [Isosilybin A, isosilybin A]?
Answer: inhibition of growth at 120 µM ([1]; Leishmania infantum, 24 h): 6.94 ± 6.43%; inhibition of growth at 120 µM [2]: 30.6 ± 5.85%

Question: `NC[C@@H]1O[C@H](O[C@H]2[C@@H](O)[C@H](O[C@@H]3[C@@H](O)[C@H](N)C[C@H](N)[C@H]3O[C@H]3O[C@H](CO)[C@@H](O)[C@H](O)[C@H]3N)O[C@@H]2CO)[C@H](N)[C@@H](O)[C@@H]1O` [PMM, paromomycin sulphate] was tested. Which “CI value of combination Dn + DhiS-A” value ([3]; ED50 (50% growth inhibition)) did it give?
Answer: Its value is 1.98 (antagonism).

Question: What about the “Dose Required of Dn in combination with DhiS-A” value (“Dose Required of Dn” below) ([3]; ED50) of the same molecule?
Answer: Its value is 822 µM.

Question: What about the “DRI of Dn in combination with DhiS-A” value ([3]; ED50) of the same molecule?
Answer: Its value is 39.54.

Question: And the “CI value of combination Dn + DhiS-A” value ([3]; ED75 (75% growth inhibition))?
Answer: The value was 1.65 (antagonism).

Question: And the “Dose Required of Dn” value ([3]; ED75)?
Answer: The value was 1145 µM.

Question: What about the “DRI of Dn in combination with DhiS-A” value ([3]; ED75) of the same molecule?
Answer: Its value is 182.9.

Question: What about the “CI value of combination Dn + DhiS-A” value ([3]; ED90 (90% growth inhibition)) of the same molecule?
Answer: The value was 1.38 (moderate antagonism).

Question: And the “Dose Required of Dn” value ([3]; ED90)?
Answer: The value was 1594 µM.

Question: What about the “DRI of Dn in combination with DhiS-A” value ([3]; ED90) of the same molecule?
Answer: The value was 845.2.

Question: And the “CI value of combination Dn + DhiS-A” value ([3]; ED95 (95% growth inhibition))?
Answer: The value was 1.23 (moderate antagonism).

Question: And the “Dose Required of Dn” value ([3]; ED95)?
Answer: Its value is 1997 µM.

Question: What about the “DRI of Dn in combination with DhiS-A” value ([3]; ED95) of the same molecule?
Answer: The value was 2393.

Question: And the “Type of interaction with DhiS-A” value [3]?
Answer: Its value is “antagonists”.

Question: For `COc1cc([C@H]2Oc3cc([C@H]4Oc5cc(O)cc(O)c5C(=O)[C@@H]4O)ccc3O[C@@H]2CO)ccc1O` [Silybin A, silybin A], which inhibition of growth at 120 µM ([1]; Leishmania infantum, 24 h) is on record?
Answer: The inhibition of growth at 120 µM was -3.18 ± 9.09%.

Question: What about the inhibition of growth at 120 µM [2] of the same molecule?
Answer: The inhibition of growth at 120 µM was 14.2 ± 7.6%.

Question: `COc1cc([C@@H]2Oc3cc([C@H]4Oc5cc(O)cc(O)c5C(=O)[C@@H]4O)ccc3O[C@H]2CO)ccc1O` [Silybin B, silybin B] was tested. Which inhibition of growth at 120 µM ([1]; Leishmania infantum, 24 h) did it give?
Answer: The inhibition of growth at 120 µM was -3.82 ± 9.11%.

Question: And the inhibition of growth at 120 µM [2]?
Answer: The inhibition of growth at 120 µM was 30.9 ± 5.02%.

Question: For `COc1cc([C@@H]2Oc3c(O)cc([C@H]4Oc5cc(O)cc(O)c5C(=O)[C@@H]4O)cc3[C@H]2CO)ccc1O` [Silychristin A, silychristin A], which inhibition of growth at 120 µM ([1]; Leishmania infantum, 24 h) is on record?
Answer: The inhibition of growth at 120 µM was 27.1 ± 8.64%.

Question: What about the Emax ([1]; Leishmania infantum, exploratory screening, 0.94 µM up to 120 µM, read-out: Maximal effect (inhibition of growth of control cultures) on Li promastigotes) of the same molecule?
Answer: Its Emax is under 50%.

Question: And the inhibition of growth at 120 µM [2]?
Answer: The inhibition of growth at 120 µM was 19.2 ± 5.75%.

Question: Which inhibition of growth at 120 µM ([1]; Leishmania infantum, 24 h) does the source give for `COc1cc([C@@H]2[C@H]3CO[C@@]4(O)C(=O)[C@@H]2C=C([C@H]2Oc5cc(O)cc(O)c5C(=O)[C@@H]2O)[C@@H]34)ccc1O` [Silydianin, silydianin] here?
Answer: The inhibition of growth at 120 µM was 16.4 ± 8.63%.

Question: And the inhibition of growth at 120 µM [2]?
Answer: The inhibition of growth at 120 µM was 20.5 ± 3.08%.

Question: Which IC50 ([1]; approximate, dose-response curve, 24 h) does the source give for “potassium tartrate of antimonium III [Sb^III]” here?
Answer: Its IC50 is about 80.6 µM.

Question: What about the “CI value of combination Dn + DhiS-A” value ([3]; ED50 (50% growth inhibition)) of the same molecule?
Answer: Its value is 1.89 (antagonism).

Question: And the “Dose Required of Dn” value ([3]; ED50)?
Answer: Its value is 56 µM.

Question: And the “DRI of Dn in combination with DhiS-A” value ([3]; ED50)?
Answer: The value was 0.82.

Question: And the “CI value of combination Dn + DhiS-A” value ([3]; ED75 (75% growth inhibition))?
Answer: The value was 2.09 (antagonism).

Question: What about the “Dose Required of Dn” value ([3]; ED75) of the same molecule?
Answer: The value was 141.12 µM.

Question: What about the “DRI of Dn in combination with DhiS-A” value ([3]; ED75) of the same molecule?
Answer: Its value is 0.92.

Question: What about the “CI value of combination Dn + DhiS-A” value ([3]; ED90 (90% growth inhibition)) of the same molecule?
Answer: Its value is 2.50 (antagonism).

Question: What about the “Dose Required of Dn” value ([3]; ED90) of the same molecule?
Answer: Its value is 355.63 µM.

Question: And the “DRI of Dn in combination with DhiS-A” value ([3]; ED90)?
Answer: Its value is 1.04.

Question: What about the “CI value of combination Dn + DhiS-A” value ([3]; ED95 (95% growth inhibition)) of the same molecule?
Answer: The value was 2.93 (antagonism).

Question: And the “Dose Required of Dn” value ([3]; ED95)?
Answer: Its value is 666.84 µM.

Question: What about the “DRI of Dn in combination with DhiS-A” value ([3]; ED95) of the same molecule?
Answer: The value was 1.13.

Question: And the “Type of interaction with DhiS-A” value [3]?
Answer: The value was “antagonists”.
